Laboratory results taken from US20250236611A1, “PYRAZOLE COMPOUNDS AND USES THEREOF” (ALCON INC., priority 2021, published 2025).

Key:
Format in all cases: biochemical
Settings in all cases: 10 nM JAK enzyme, 800 nM Abl peptide, room temperature 75 min
JAK3 = target: T1, JAK3 (Homo sapiens, UniProt P52333); assay: JAK assay (KINASE-GLO luminescent kinase assay), JAK3
T1 sequence (P52333 1-1124): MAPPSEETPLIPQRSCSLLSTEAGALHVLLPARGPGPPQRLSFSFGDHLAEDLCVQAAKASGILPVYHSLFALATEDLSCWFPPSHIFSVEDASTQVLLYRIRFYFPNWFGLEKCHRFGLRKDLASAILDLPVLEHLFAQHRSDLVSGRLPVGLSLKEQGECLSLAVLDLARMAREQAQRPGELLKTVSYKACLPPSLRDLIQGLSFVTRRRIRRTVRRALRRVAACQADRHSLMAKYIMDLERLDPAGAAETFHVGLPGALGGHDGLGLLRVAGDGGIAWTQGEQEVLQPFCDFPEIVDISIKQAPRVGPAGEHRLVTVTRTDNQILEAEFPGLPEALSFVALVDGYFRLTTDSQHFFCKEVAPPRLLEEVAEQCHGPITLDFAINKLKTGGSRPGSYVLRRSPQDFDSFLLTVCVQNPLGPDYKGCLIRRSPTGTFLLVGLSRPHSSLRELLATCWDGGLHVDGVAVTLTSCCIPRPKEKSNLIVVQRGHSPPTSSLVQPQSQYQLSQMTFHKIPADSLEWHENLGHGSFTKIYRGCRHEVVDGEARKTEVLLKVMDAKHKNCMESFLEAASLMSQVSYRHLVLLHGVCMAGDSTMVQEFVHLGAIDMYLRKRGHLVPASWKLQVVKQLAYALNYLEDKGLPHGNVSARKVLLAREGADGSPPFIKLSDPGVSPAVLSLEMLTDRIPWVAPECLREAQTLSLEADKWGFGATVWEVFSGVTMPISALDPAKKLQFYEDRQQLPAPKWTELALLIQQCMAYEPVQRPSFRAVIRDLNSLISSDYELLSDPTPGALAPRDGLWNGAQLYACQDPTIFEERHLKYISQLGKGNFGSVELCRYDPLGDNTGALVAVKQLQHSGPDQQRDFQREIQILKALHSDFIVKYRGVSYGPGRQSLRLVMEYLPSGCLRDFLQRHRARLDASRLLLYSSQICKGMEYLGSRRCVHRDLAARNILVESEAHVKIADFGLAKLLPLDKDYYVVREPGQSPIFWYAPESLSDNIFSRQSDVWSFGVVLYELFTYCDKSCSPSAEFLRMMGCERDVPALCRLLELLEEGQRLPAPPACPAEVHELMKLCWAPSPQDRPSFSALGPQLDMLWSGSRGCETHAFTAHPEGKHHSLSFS
Method in brief: (§1)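 The 2× mix gave 10 nM kinase, 800 nM Abl peptide and 2 µM DTT, and ATP was added as a 4× stock (2 µM), in HEPES pH 7.5 buffer. Compounds ran as an 11-point series, 100 µM–10 pM final in 2.5% DMSO, for 75 min at RT. Remaining ATP was read by luminescence against DMSO control, and 4-parameter IC50s were converted to Ki by Cheng-Prusoff.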

JAK1 = JAK1 (Homo sapiens, UniProt P23458); assay: JAK assay (KINASE-GLO luminescent kinase assay), JAK1
JAK1, sequence (P23458 whole entry): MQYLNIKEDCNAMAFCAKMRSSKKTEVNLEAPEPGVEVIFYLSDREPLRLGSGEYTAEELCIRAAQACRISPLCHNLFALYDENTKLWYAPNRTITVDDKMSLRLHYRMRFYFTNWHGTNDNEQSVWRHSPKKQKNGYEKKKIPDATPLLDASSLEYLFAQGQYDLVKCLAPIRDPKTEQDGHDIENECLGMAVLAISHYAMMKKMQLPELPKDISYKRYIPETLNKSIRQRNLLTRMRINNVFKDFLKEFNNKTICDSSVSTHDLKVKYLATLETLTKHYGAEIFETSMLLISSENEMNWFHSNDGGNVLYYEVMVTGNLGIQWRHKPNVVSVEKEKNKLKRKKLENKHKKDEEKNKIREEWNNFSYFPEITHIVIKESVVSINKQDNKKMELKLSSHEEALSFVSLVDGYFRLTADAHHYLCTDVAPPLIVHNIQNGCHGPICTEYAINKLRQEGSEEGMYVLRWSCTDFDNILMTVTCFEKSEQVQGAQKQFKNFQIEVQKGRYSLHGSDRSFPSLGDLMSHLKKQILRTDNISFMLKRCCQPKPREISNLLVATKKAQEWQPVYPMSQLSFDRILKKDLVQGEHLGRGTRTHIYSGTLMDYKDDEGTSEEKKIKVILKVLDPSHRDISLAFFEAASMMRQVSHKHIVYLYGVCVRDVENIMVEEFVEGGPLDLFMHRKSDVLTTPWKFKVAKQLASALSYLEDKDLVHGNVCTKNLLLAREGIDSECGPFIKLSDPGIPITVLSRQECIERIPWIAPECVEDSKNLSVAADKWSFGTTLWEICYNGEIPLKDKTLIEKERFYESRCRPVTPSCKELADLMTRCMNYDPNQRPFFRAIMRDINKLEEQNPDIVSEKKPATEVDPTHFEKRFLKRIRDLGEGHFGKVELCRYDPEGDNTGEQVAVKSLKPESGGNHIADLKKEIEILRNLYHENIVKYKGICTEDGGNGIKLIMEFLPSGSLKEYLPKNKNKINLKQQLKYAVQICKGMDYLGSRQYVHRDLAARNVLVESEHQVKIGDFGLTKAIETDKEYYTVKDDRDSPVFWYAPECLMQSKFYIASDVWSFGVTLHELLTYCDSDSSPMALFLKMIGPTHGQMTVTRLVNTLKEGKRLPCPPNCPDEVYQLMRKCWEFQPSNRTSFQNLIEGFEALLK
Method in brief: as §1

TYK2 = TYK2 (Homo sapiens, UniProt P29597); assay: JAK assay (KINASE-GLO luminescent kinase assay), TYK2
TYK2, sequence (P29597 whole entry): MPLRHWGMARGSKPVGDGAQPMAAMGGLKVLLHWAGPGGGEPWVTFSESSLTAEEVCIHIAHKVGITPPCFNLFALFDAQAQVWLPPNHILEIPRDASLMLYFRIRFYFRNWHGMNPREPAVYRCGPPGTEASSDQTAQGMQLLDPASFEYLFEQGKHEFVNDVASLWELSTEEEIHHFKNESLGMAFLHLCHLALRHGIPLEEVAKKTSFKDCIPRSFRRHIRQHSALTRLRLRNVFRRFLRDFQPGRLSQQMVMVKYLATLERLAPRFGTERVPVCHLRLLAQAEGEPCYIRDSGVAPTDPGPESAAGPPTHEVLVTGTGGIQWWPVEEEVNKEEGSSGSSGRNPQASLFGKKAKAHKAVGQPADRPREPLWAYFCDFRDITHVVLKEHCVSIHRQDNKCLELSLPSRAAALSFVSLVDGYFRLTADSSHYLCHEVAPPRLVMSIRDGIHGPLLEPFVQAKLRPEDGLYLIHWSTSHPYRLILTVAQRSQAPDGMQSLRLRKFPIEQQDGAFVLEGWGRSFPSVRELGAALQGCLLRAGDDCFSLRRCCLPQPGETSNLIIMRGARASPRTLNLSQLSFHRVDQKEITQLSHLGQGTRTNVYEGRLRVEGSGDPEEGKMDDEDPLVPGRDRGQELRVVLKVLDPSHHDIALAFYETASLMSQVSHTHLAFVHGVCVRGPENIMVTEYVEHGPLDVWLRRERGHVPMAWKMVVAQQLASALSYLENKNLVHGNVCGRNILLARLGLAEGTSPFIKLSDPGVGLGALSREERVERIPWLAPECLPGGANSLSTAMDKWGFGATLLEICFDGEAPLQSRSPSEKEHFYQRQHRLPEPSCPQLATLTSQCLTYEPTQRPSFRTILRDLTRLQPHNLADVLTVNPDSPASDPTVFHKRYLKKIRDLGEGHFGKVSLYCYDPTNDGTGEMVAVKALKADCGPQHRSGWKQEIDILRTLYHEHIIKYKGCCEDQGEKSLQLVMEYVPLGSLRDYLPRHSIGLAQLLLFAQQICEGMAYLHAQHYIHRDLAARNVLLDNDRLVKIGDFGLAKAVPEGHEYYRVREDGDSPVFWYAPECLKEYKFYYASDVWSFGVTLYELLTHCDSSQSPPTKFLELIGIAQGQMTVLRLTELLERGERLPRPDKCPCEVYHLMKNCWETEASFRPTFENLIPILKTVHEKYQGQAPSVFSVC

JAK2 = JAK2 (Homo sapiens, UniProt O60674); assay: JAK assay (KINASE-GLO luminescent kinase assay), JAK2
JAK2, sequence (O60674 whole entry): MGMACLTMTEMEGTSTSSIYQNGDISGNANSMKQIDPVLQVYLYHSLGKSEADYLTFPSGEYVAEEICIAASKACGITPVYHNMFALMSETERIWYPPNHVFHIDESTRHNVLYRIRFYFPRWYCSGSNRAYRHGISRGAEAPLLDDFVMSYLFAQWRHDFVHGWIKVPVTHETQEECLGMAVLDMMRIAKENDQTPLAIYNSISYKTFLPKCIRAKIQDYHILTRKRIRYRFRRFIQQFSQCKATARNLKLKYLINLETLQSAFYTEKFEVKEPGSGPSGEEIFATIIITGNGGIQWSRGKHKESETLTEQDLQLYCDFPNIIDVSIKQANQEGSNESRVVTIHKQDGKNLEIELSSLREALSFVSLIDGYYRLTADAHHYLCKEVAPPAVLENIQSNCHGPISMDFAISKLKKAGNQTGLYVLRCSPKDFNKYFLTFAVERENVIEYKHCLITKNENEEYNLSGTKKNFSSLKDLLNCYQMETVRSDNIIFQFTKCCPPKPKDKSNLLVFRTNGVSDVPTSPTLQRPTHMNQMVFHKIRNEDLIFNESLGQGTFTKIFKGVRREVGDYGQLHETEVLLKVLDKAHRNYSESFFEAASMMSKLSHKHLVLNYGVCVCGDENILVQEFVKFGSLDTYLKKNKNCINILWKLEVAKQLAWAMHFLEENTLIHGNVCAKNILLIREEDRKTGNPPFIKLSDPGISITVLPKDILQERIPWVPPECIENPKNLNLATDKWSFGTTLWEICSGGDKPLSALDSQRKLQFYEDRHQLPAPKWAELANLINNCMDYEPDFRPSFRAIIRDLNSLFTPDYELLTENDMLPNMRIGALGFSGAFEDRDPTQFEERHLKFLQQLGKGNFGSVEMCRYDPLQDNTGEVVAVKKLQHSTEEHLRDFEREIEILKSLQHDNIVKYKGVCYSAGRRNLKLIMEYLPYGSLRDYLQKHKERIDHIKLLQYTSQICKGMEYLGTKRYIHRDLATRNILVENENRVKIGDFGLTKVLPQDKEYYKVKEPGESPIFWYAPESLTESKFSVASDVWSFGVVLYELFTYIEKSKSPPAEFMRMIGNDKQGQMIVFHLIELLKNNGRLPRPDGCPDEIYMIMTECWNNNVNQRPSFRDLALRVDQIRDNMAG
Method in brief: as §1

Row | IC50 (JAK3) | IC50 (JAK1) | IC50 (TYK2) | IC50 (JAK2) | SMILES
1 | < 100 nM | < 1000 nM | < 1000 nM | < 10 nM | FC(F)C1(Cn2cc(-c3nc(Nc4ccc5cnoc5c4)ncc3Cl)cn2)COC1 [FC(F)C1(COC1)C[N]2C═C(C═N2)C3═C]
2 | > 50000 nM | > 50000 nM | > 50000 nM | < 100000 nM | NC(=O)CCn1cc(-c2nc(NC3CCNCC3(F)F)ncc2Cl)cn1 (stereo not shown) [NC(═O)CC[N]1C═C(C═N1)C2═C]
3 | < 10 nM | < 100 nM | < 100 nM | < 10 nM | NCc1cccc(Nc2ncc(Cl)c(-c3cnn(CC4(CF)CC4)c3)n2)c1 [NCC1═CC═CC(═C1)NC2═NC(═C]
4 | < 100 nM | < 10 nM | < 10 nM | < 10 nM | N#CCCn1cc(-c2nc(Nc3ccc(C(=O)O)cc3)ncc2Cl)cn1 [OC(═O)C1═CC═C(NC2═NC(═C]
5 | < 1000 nM | < 1000 nM | < 1000 nM | < 10 nM | N#CCCn1cc(-c2nc(Nc3cccc(C(=O)O)c3)ncc2Cl)cn1 [OC(═O)C1═CC═CC(═C1)NC2═NC]
6 | < 1000 nM | < 100 nM | < 100 nM | < 10 nM | N#CC1(Cn2cc(-c3nc(Nc4ccc(C(=O)O)nc4)ncc3Cl)cn2)CC1 [OC(═O)C1═NC═C(NC2═NC(═C]
7 | < 100 nM | < 100 nM | < 10 nM | < 10 nM | N#CCC1(Cn2cc(-c3ccnc(Nc4cc(CO)ns4)n3)cn2)CC1 [OCC1═NSC(═C1)NC2═NC(═CC═N2)C3═C[N]]
8 | < 10 nM | < 10 nM | < 10 nM | < 10 nM | OCC(O)c1cccc(Nc2ncc(Cl)c(-c3cnn(CC4(CF)CC4)c3)n2)c1 (stereo not shown) [OCC(O)C1═CC═CC(═C1)NC2═NC(═C]
9 | < 100 nM | < 100 nM | < 10 nM | < 10 nM | N#CCCn1cc(-c2nc(Nc3ccc(CCO)cc3)ncc2Cl)cn1 [OCCC1═CC═C(NC2═NC(═C]
10 | < 100 nM | < 100 nM | < 10 nM | < 10 nM | N#CCCn1cc(-c2nc(Nc3ccc(CCOP(=O)(O)O)cc3)ncc2Cl)cn1 [O[P](O)(═O)OCCC1═CC═C(NC2═NC(═C]
11 | > 50000 nM | < 100000 nM | < 100000 nM | < 100000 nM | N#CCCn1cc(-c2ccnc(NC(=O)C3CC3)n2)cn1 [O═C(NC1═NC(═CC═N1)C2═C[N]]

Row | SMILES | IC50 (JAK3) | IC50 (JAK1) | IC50 (TYK2) | IC50 (JAK2)
12 | N#CCC1(Cn2cc(-c3ccnc(Nc4ccns4)n3)cn2)CC1 [N#CCC1(CC1)C[N]2C═C(C═N2)C3═CC═NC] | < 100 nM | < 100 nM | < 100 nM | < 10 nM
13 | N#CCC1(Cn2cc(-c3nc(Nc4ccns4)ncc3C3CC3)cn2)CC1 [N#CCC1(CC1)C[N]2C═C(C═N2)C3═C] | < 100 nM | < 100 nM | < 100 nM | < 10 nM
